Results: ChEMBL document CHEMBL3045177, “The effect of ascorbic acid supplementation on brain oxidative events in experimental diabetes” (Med Chem Res, 2010)

Experiments:
Rattus norvegicus [1] = assay: Neuroprotective activity in streptozotocin-induced Rattus norvegicus Wistar albino (rat) diabetic model assessed as decrease in brain malondialdehyde level measured per gram of tissue at 20 mg/kg, administered as intragastrically after 21 days by TBARS assay (reference value: 447 +/- 61.9 nmol); format: functional; settings: route intragastric
Rattus norvegicus [2] = assay: Neurotoxicity in Rattus norvegicus Wistar albino (rat) assessed as increase in brain ascorbic acid level measured per gram of tissue at 20 mg/kg, administered as intragastrically after 21 days by spectrphotometric analysis (reference value: 3.7 +/- 0.7 mg); format: toxicity, organism-based; parameters: dose 20 mg/kg, route intragastric; settings: in vivo, po, 504 h
Rattus norvegicus [3] = assay: Neurotoxicity in Rattus norvegicus Wistar albino (rat) assessed as increase in brain glutathione level measured per gram of tissue at 20 mg/kg, administered as intragastrically after 21 days by Ellman's method (reference value: 3.5 +/- 1.0 umol); format: toxicity, organism-based; parameters: dose 20 mg/kg, route intragastric; settings: in vivo, po, 504 h
Rattus norvegicus [4] = assay: Neurotoxicity in Rattus norvegicus Wistar albino (rat) assessed as increase in brain malondialdehyde level measured per gram of tissue at 20 mg/kg, administered as intragastrically after 21 days by TBARS assay (reference value: 233.9 +/- 48.6 nmol); format: toxicity, organism-based; parameters: dose 20 mg/kg, route intragastric; settings: in vivo, po, 504 h
Rattus norvegicus [5] = assay: Neurotoxicity in Rattus norvegicus Wistar albino (rat) assessed as increase in brain total nitric oxide level measured per gram of tissue at 20 mg/kg, administered as intragastrically after 21 days by Griess assay (reference value: 144.8 +/- 16.3 umol); format: toxicity, organism-based; parameters: dose 20 mg/kg, route intragastric; settings: in vivo, po, 504 h
Rattus norvegicus [6] = assay: Neuroprotective activity in streptozotocin-induced Rattus norvegicus Wistar albino (rat) diabetic model assessed as increase in brain glutathione level measured per gram of tissue at 20 mg/kg, administered as intragastrically after 21 days by Ellman's method (reference value: 3 +/- 0.5 umol); format: functional; settings: route intragastric
Rattus norvegicus [7] = assay: Neuroprotective activity in streptozotocin-induced Rattus norvegicus Wistar albino (rat) diabetic model assessed as increase in brain total nitric oxide level measured per gram of tissue at 20 mg/kg, administered as intragastrically after 21 days by Griess assay (reference value: 100.6 +/- 10.7 umol); format: functional; settings: route intragastric
Rattus norvegicus [8] = assay: Neuroprotective activity in streptozotocin-induced Rattus norvegicus Wistar albino (rat) diabetic model assessed as increase in brain ascorbic acid level measured per gram of tissue at 20 mg/kg, administered as intragastrically after 21 days by spectrphotometric analysis (reference value: 3.7 +/- 0.4 mg); format: functional; settings: route intragastric

O=C1O[C@H]([C@@H](O)CO)C(O)=C1O [ASCORBIC ACID]
Activity (Rattus norvegicus [1]): 204.2 nmol | Activity (Rattus norvegicus [2]): 5.2 mg | Activity (Rattus norvegicus [3]): 5.4 µmol | Activity (Rattus norvegicus [4]): 249.2 nmol | Activity (Rattus norvegicus [5]): 115.2 µmol | Activity (Rattus norvegicus [6]): 3.1 µmol | Activity (Rattus norvegicus [7]): 146.1 µmol | Activity (Rattus norvegicus [8]): 4.26 mg
